# Measurements from US20220356170A1, “SREBP INHIBITOR COMPRISING A THIOPHENE CENTRAL RING” (Capulus Therapeutics, LLC, priority 2019, published 2022).
# Experiments:
# Experiment in all cases: Cancer cell growth inhibition, Sulforhodamine B
# Assay type in all cases: cell-based
# PANC1005 = settings: Homo sapiens, Panc1005, 72 h, PANC1005 (pancreas)
# Description: (§1) The ability of select compounds to inhibit cell growth in various cancer cell lines are evaluated. […] The cell lines shown in Table 5 have reduced growth by at least 50% at 10 uM or lower over 72 hr treatment in growth media. The cell lines shown in Table 6 have reduced growth by at least 50% with an IC50 greater than 10 uM.
# (§2) Six 10-fold compound dilutions are prepared in DMSO (e.g. 10 mM, 1 mM, 100 uM, 10 uM, 1 uM, and 0.1 uM). Single data points are acquired for each concentration. The final concentration of DMSO is 0.1%. The duration of the treatment is 72 hr. Growth inhibition is measured using Sulforhodamine B in a protein staining assay. Activity of the agents is determined by evaluation the following parameters: IC50, GI50, IC10, TGI, LC50, IC90, and GI90 (where these values can be calculated).
# PC3 = settings: Homo sapiens, PC-3; PC3 (prostate), 72 hr; Non-Responder Cell Lines with IC50 >10 uM or Not Determined
# Description: as §1, §2
# NCIH358M = settings: NCI-H358M; NCIH358M (lung), 72 hr; Non-Responder Cell Lines with IC50 >10 uM or Not Determined
# Description: as §1, §2
# SKMEL5 = settings: Homo sapiens, SK-MEL-5, 72 h, SKMEL5 (skin)
# Description: as §1, §2
# MT3 = settings: MT-3, 72 h, MT3 (breast)
# Description: as §1, §2
# JAR = JAR (placenta), 72 hr; Responder Cell Lines
# Description: as §1, §2
# SKBR3 = settings: Homo sapiens, SK-BR-3, 72 h, SKBR3 (breast)
# Description: as §1, §2
# SU-DHL-6 = settings: Homo sapiens, SU-DHL-6, 72 h, SU-DHL-6 (hematological)
# Description: as §1, §2
# PLCPRF5 = settings: Homo sapiens, PLC-PRF-5, 72 h, PLCPRF5 (liver)
# Description: as §1, §2
# UMUC3 = settings: Homo sapiens; UMUC3 (bladder), 72 hr; Non-Responder Cell Lines with IC50 >10 uM or Not Determined
# Description: as §1, §2
# RAMOS = settings: Homo sapiens, 72 h, RAMOS (hematological)
# Description: as §1, §2
# JEG3 = settings: Homo sapiens, JEG-3; JEG3 (placenta), 72 hr; Responder Cell Lines
# Description: as §1, §2
# MDAMB468 = settings: Homo sapiens, MDA-MB-468, 72 h, MDAMB468 (breast)
# Description: as §1, §2
# RDES = settings: RD-ES; RDES (bone), 72 hr; Non-Responder Cell Lines with IC50 >10 uM or Not Determined
# Description: as §1, §2
# CACO2 = settings: Homo sapiens, Caco-2; CACO2 (colon), 72 hr; Responder Cell Lines
# Description: as §1, §2
# C33A = settings: Homo sapiens, C-33-A; 72 hr; Responder Cell Lines
# Description: as §1, §2
# SU-DHL-10 = settings: Homo sapiens, SU-DHL10; SU-DHL-10 (hematological), 72 hr; Non-Responder Cell Lines with IC50 >10 uM or Not Determined
# Description: as §1, §2
# ACHN = settings: Homo sapiens; ACHN (kidney), 72 hr; Responder Cell Lines
# Description: as §1, §2
# PBMC = PBMC (hematological), 72 hr; Non-Responder Cell Lines with IC50 >10 uM or Not Determined
# Description: as §1, §2
# SF295 = settings: Homo sapiens, SF-295, 72 h, SF295 (brain)
# Description: as §1, §2
# WSU-NHL = settings: Homo sapiens, 72 h, WSU-NHL (hematological)
# Description: as §1, §2
# U87MG = settings: Homo sapiens, U-87 MG; U87MG (brain), 72 hr; Non-Responder Cell Lines with IC50 >10 uM or Not Determined
# Description: as §1, §2
# TE671 = settings: Homo sapiens, TE-671, 72 h, TE671 (muscle)
# Description: as §1, §2
# [1] = Non-Responder Cell Lines with IC50 >10 uM or Not Determined
compound,measurement,setting,value
"CC(C)(O)c1cc(-c2csc(-c3ccc(C(=O)N4CCC(O)CC4)cc3Cl)c2)ccn1 [Compound 1, (3-chloro-4-(4-(2-(2-hydroxypropan-2-yl)pyridin-4-yl)thiophen-2-yl)phenyl)(4-hydroxypiperidin-1-yl)methanone]",IC50,PANC1005; [1],> 10 µM
same,IC50,PANC1005; Responder Cell Lines,< 10 µM
same,IC50,PC3,> 10 µM
same,IC50,NCIH358M,> 10 µM
same,IC50,SKMEL5; [1],> 10 µM
same,IC50,SKMEL5; Responder Cell Lines,< 10 µM
same,IC50,MT3; [1],> 10 µM
same,IC50,MT3; Responder Cell Lines,< 10 µM
same,IC50,JAR,< 10 µM
same,IC50,SKBR3; [1],> 10 µM
same,IC50,SKBR3; Responder Cell Lines,< 10 µM
same,IC50,SU-DHL-6; [1],> 10 µM
same,IC50,SU-DHL-6; Responder Cell Lines,< 10 µM
same,IC50,PLCPRF5; [1],> 10 µM
same,IC50,PLCPRF5; Responder Cell Lines,< 10 µM
same,IC50,UMUC3,> 10 µM
same,IC50,RAMOS; [1],> 10 µM
same,IC50,RAMOS; Responder Cell Lines,< 10 µM
same,IC50,JEG3,< 10 µM
same,IC50,MDAMB468; [1],> 10 µM
same,IC50,MDAMB468; Responder Cell Lines,< 10 µM
same,IC50,RDES,> 10 µM
same,IC50,CACO2,< 10 µM
same,IC50,C33A,< 10 µM
same,IC50,SU-DHL-10,> 10 µM
same,IC50,ACHN,< 10 µM
same,IC50,PBMC,> 10 µM
same,IC50,SF295; [1],> 10 µM
same,IC50,SF295; Responder Cell Lines,< 10 µM
same,IC50,WSU-NHL; [1],> 10 µM
same,IC50,WSU-NHL; Responder Cell Lines,< 10 µM
same,IC50,U87MG,> 10 µM
same,IC50,TE671; [1],> 10 µM
same,IC50,TE671; Responder Cell Lines,< 10 µM
